Experiments:
EGFR (human) = EGFR (human) (UniProt P00533); test: Enzyme Assay
[1] = target: EGFR (human), P00533 [L858R]; test: Cell-Based Assay; conditions: ba/f3
[2] = target: EGFR (human), P00533 [L858R]; test: Enzyme Assay
[3] = target: EGFR (human), P00533 [L861Q]; test: Enzyme Assay
EGFR (human), P00533 [L861Q], sequence (P00533 whole entry L861Q, looked up): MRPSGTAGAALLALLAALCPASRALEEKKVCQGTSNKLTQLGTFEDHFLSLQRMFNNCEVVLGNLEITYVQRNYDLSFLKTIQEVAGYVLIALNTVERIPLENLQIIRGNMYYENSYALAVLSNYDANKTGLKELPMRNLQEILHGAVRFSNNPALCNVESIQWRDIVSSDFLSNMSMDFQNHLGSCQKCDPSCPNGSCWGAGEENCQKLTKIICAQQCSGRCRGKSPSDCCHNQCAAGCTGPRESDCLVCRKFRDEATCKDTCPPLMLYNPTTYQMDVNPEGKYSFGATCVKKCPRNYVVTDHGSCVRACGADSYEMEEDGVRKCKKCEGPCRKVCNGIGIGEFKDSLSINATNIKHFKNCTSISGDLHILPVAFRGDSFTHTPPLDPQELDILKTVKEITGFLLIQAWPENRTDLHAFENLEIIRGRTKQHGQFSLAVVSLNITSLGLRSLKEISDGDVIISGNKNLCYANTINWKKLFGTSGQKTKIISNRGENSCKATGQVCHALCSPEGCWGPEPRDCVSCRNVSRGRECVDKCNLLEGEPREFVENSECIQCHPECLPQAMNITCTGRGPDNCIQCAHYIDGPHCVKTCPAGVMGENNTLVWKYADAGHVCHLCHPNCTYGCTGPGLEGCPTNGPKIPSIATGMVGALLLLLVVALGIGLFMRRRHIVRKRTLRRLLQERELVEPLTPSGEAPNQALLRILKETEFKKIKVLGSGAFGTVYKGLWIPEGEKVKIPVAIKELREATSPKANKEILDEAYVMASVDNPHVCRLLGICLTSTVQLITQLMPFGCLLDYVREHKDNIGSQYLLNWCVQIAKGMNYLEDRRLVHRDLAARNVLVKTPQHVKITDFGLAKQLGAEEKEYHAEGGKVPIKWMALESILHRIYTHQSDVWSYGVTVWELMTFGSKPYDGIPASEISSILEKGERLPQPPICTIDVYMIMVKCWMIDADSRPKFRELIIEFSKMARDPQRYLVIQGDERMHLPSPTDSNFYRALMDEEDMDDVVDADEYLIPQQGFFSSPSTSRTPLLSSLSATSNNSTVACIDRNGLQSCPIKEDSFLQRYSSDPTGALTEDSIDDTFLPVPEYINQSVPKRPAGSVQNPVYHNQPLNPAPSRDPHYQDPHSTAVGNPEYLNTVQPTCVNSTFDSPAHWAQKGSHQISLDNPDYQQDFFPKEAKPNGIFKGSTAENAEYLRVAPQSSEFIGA

EGFR (human), sequence (P00533 whole entry, looked up): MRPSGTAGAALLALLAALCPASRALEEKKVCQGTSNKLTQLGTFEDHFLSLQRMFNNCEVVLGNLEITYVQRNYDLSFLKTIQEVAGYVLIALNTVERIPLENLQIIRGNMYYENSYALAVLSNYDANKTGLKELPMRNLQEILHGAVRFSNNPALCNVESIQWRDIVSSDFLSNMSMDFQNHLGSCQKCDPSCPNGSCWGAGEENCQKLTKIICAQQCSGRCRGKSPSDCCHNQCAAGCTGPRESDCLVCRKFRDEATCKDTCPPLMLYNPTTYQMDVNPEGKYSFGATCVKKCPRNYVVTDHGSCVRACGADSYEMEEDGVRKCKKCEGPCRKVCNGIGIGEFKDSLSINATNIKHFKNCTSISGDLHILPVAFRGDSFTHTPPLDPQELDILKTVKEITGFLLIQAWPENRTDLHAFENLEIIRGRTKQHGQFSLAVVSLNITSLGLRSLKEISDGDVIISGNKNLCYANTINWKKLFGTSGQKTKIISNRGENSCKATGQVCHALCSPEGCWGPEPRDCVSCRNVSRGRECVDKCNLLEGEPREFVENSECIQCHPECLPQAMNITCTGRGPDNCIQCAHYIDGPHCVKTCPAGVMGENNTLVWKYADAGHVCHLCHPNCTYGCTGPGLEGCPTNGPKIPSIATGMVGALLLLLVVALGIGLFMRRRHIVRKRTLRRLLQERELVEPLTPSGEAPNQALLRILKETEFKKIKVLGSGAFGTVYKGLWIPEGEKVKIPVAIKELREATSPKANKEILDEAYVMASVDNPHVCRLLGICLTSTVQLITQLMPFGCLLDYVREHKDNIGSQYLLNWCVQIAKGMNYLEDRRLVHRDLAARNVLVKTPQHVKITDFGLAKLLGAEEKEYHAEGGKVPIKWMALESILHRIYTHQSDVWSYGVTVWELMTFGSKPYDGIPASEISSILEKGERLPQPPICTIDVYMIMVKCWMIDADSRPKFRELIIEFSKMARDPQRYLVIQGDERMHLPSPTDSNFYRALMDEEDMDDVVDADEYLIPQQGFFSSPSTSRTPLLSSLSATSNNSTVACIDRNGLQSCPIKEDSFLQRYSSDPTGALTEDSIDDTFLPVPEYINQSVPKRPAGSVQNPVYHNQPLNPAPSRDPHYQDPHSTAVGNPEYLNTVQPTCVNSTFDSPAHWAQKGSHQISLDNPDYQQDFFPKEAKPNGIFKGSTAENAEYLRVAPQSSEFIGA
EGFR (human), P00533 [L858R], sequence (P00533 whole entry L858R, looked up): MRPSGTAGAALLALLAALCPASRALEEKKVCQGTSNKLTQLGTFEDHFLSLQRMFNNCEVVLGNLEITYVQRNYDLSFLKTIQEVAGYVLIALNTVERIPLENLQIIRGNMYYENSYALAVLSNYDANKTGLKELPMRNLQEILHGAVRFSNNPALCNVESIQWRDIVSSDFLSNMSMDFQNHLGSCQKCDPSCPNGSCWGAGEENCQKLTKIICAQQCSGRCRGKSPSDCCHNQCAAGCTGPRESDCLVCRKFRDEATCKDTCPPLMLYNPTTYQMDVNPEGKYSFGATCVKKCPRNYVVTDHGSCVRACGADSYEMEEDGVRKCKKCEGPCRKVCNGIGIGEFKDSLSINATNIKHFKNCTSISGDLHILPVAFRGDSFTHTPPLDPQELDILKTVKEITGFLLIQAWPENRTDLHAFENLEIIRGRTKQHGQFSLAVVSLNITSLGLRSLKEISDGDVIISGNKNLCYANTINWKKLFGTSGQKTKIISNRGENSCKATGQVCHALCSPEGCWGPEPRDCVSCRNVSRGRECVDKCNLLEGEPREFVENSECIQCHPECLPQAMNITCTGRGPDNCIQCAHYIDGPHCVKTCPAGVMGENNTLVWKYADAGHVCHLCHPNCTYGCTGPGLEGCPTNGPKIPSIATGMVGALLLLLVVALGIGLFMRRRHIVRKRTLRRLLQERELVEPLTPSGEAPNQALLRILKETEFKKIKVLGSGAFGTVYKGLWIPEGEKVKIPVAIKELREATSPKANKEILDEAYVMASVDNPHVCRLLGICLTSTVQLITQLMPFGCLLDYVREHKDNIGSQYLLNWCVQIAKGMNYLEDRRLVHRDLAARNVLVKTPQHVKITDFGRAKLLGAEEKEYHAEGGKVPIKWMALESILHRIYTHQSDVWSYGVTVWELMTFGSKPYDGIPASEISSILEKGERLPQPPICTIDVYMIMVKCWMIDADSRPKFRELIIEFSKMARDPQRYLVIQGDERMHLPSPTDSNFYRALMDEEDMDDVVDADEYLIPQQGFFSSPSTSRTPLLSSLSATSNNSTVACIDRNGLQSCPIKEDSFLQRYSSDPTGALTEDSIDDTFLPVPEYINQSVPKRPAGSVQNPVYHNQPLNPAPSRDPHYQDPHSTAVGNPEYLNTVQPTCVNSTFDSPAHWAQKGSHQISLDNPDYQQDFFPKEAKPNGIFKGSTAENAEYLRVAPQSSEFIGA

Row | IC50 (EGFR (human)) | IC50 [1] | IC50 [2] | IC50 [3] | SMILES
1 | 0.5 nM | – | – | – | COc1cc(C=O)ccc1-c1cc2c(N[C@H](C)c3ccccc3)ncnc2[nH]1
2 | 20 nM | – | – | – | COc1cc(C=O)ccc1-c1cc2c(Nc3ccccc3)ncnc2s1
3 | 1.8 nM | – | – | – | COC[C@@H](Nc1ncnc2[nH]c(-c3ccccc3)cc12)c1ccccc1
4 | 45 nM | – | – | – | C[C@@H](Nc1ncnc2sc(-c3cccc(O)c3)cc12)c1ccccc1
5 | 0.3 nM | 83 nM | 0.6 nM | 0.5 nM | COc1cc(CO)ccc1-c1cc2c(N[C@H](CO)c3ccc(F)cc3)ncnc2[nH]1
6 | 153 nM | – | – | – | Cc1ccccc1-c1cc2c(N[C@H](C)c3ccccc3)ncnc2s1
7 | 0.5 nM | – | 0.8 nM | 0.4 nM | COc1cc(CO)ccc1-c1cc2c(NCc3ccccc3)ncnc2[nH]1
8 | 0.3 nM | – | 0.3 nM | 0.3 nM | COc1cc(CO)ccc1-c1cc2c(N[C@H](CO)c3ccccc3)ncnc2s1
9 | 59 nM | – | – | – | C[C@@H](Nc1ncnc2sc(-c3ccccc3)cc12)c1ccccc1
10 | 37 nM | – | – | – | COc1cccc(-c2cc3c(N[C@H](C)c4ccccc4)ncnc3s2)c1
11 | 0.6 nM | – | 0.7 nM | 0.6 nM | COc1cc(CO)ccc1-c1cc2c(N[C@H](C)c3ccccc3)ncnc2s1
12 | 0.7 nM | 127 nM | 1.3 nM | 1 nM | OC[C@@H](Nc1ncnc2[nH]c(-c3ccccc3)cc12)c1ccccc1
13 | 2.1 nM | – | – | – | COc1cc(C=O)ccc1-c1cc2c(NCc3ccccc3)ncnc2[nH]1
14 | 29 nM | – | – | – | Oc1ccccc1-c1cc2c(NCc3ccccc3)ncnc2s1
15 | 38 nM | – | – | – | C[C@@H](Nc1ncnc2sc(-c3ccccc3CO)cc12)c1ccccc1
16 | 77 nM | – | – | – | Cc1cccc(-c2cc3c(N[C@H](C)c4ccccc4)ncnc3s2)c1
17 | 105 nM | – | – | – | Cc1ccc(-c2cc3c(N[C@H](C)c4ccccc4)ncnc3s2)cc1
18 | 54 nM | – | – | – | COc1ccc(-c2cc3c(N[C@H](C)c4ccccc4)ncnc3s2)cc1
19 | 4.8 nM | – | – | – | COc1cc(CO)ccc1-c1cc2c(NCc3ccccc3)ncnc2s1
20 | 6.7 nM | – | 7.71 nM | 9.06 nM | COc1ccccc1-c1cc2c(N[C@H](C)c3ccccc3)ncnc2s1
21 | 2.7 nM | – | – | – | COc1ccc(-c2cc3c(N[C@H](CO)c4ccccc4)ncnc3o2)cc1
22 | 9.1 nM | – | – | – | C[C@@H](Nc1ncnc2sc(-c3cccc(CO)c3)cc12)c1ccccc1

The remaining lines, values behind:

Row | SMILES | IC50 (EGFR (human)) | IC50 [1] | IC50 [2] | IC50 [3]
23 | COc1ccc(-c2cc3c(N[C@H](C)c4ccccc4)ncnc3s2)c(OC)c1 | 5 nM | – | – | –
24 | COc1ccc(C=O)cc1-c1cc2c(N[C@H](C)c3ccccc3)ncnc2s1 | 2.6 nM | – | – | –
25 | OCc1ccc(-c2cc3c(N[C@H](CO)c4ccccc4)ncnc3[nH]2)cc1 | 0.4 nM | 172 nM | 0.4 nM | 0.2 nM
26 | COc1c(CO)cccc1-c1cc2c(N[C@H](C)c3ccccc3)ncnc2s1 | 1.6 nM | – | – | –
27 | COc1cc(C=O)ccc1-c1cc2c(N[C@H](CO)c3ccccc3)ncnc2[nH]1 | 0.3 nM | – | – | –
28 | COc1cc(C=O)ccc1-c1cc2c(NCc3ccccc3)ncnc2s1 | 6.3 nM | – | – | –
29 | COc1cc(CO)ccc1-c1cc2c(N[C@H](C)c3ccccc3)ncnc2[nH]1 | 0.2 nM | 99 nM | 0.4 nM | 0.2 nM
30 | C[C@@H](Nc1ncnc2sc(-c3ccc(O)cc3)cc12)c1ccccc1 | 84 nM | – | – | –
31 | COc1cc(C=O)ccc1-c1cc2c(N[C@H](C)c3ccccc3)ncnc2s1 | 3 nM | – | 4.3 nM | 3.9 nM
32 | CC[C@@H](Nc1ncnc2sc(-c3ccccc3O)cc12)c1ccccc1 | 33 nM | – | – | –
33 | COc1cc(F)ccc1-c1cc2c(N[C@H](CO)c3ccccc3)ncnc2[nH]1 | 1 nM | – | – | –
34 | COc1ccc(CO)cc1-c1cc2c(N[C@H](C)c3ccccc3)ncnc2s1 | 4.7 nM | – | – | –
35 | COc1cccc(OC)c1-c1cc2c(N[C@H](CO)c3ccccc3)ncnc2s1 | 0.79 nM | – | – | –
36 | COc1cc(CO)ccc1-c1cc2c(Nc3ccccc3)ncnc2s1 | 3.1 nM | – | – | –
37 | OCc1ccc(-c2cc3c(N[C@H](CO)c4ccccc4)ncnc3s2)cc1 | 2.2 nM | – | 2.3 nM | 1.6 nM
38 | C[C@@H](Nc1ncnc2sc(-c3ccc(CO)cc3)cc12)c1ccccc1 | 6.6 nM | – | – | –
39 | OC[C@@H](Nc1ncnc2oc(-c3ccc(O)cc3)cc12)c1ccccc1 | 2 nM | – | – | –
40 | COc1cc(C=O)ccc1-c1cc2c(N[C@H](CO)c3ccccc3)ncnc2s1 | 0.8 nM | – | 0.9 nM | 0.8 nM
41 | COc1ccccc1-c1cc2c(N[C@H](CO)c3ccccc3)ncnc2s1 | 0.9 nM | – | 1.3 nM | 1 nM
42 | COc1cccc(OC)c1-c1cc2c(N[C@H](C)c3ccccc3)ncnc2s1 | 1.1 nM | – | – | –
43 | OC[C@@H](Nc1ncnc2sc(-c3ccccc3O)cc12)c1ccccc1 | 3.4 nM | – | – | –
44 | COc1cc(F)ccc1-c1cc2c(N[C@H](C)c3ccccc3)ncnc2s1 | 6.3 nM | – | – | –
45 | COc1cc(C=O)ccc1-c1cc2c(N[C@H](CO)c3ccc(F)cc3)ncnc2[nH]1 | 0.6 nM | – | – | –
46 | C[C@@H](Nc1ncnc2sc(-c3ccccc3O)cc12)c1ccccc1 | 35 nM | – | – | –
47 | COc1ccccc1-c1cc2c(N[C@H](CO)c3ccccc3)ncnc2[nH]1 | 0.5 nM | 134 nM | 0.1 nM | 0.2 nM
